Reference: patent US8192962B2, “Processes for detecting toxic substances” (Daikin Industries, Ltd., priority 2001, dated 2012)

System: Mitochondria-located protein genes
Assay: DNA chip mRNA expression in yeast, mitochondria-located protein genes (Table 2)
Assay type: cell-based, Saccharomyces cerevisiae S288C
Settings: cells incubated two hours with the chemical substance
Method in brief: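 Chemical exposure: 2 h, log-phase S. cerevisiae S288C, YPD, 25° C., dose set to inhibit growth without death. Profiling: mRNA labeled by reverse transcription with Cy3- or Cy5-dUTP, hybridized to whole-genome array. Output: fluorescence ratio against untreated culture.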

manganese ethylenebis(dithiocarbamate) [(8)]
The level of expressed mRNA in the presence of chemical substance/The level of expressed mRNA in the absence of chemical substance (yeast gene YJR121W): 0.7 | The level of expressed mRNA in the presence of chemical substance/The level of expressed mRNA in the absence of chemical substance (yeast gene YKL003C): 1.2 | The level of expressed mRNA in the presence of chemical substance/The level of expressed mRNA in the absence of chemical substance (yeast gene YKL016C): 1.6 | The level of expressed mRNA in the presence of chemical substance/The level of expressed mRNA in the absence of chemical substance (yeast gene YKL141W): 0.8 | The level of expressed mRNA in the presence of chemical substance/The level of expressed mRNA in the absence of chemical substance (yeast gene YKL142W): 2.3 | The level of expressed mRNA in the presence of chemical substance/The level of expressed mRNA in the absence of chemical substance (yeast gene YKL148C): 0.8 | The level of expressed mRNA in the presence of chemical substance/The level of expressed mRNA in the absence of chemical substance (yeast gene YKL170W): 1.2 | The level of expressed mRNA in the presence of chemical substance/The level of expressed mRNA in the absence of chemical substance (yeast gene YKL194C): 1.1 | The level of expressed mRNA in the presence of chemical substance/The level of expressed mRNA in the absence of chemical substance (yeast gene YKR066C): 0.7 | The level of expressed mRNA in the presence of chemical substance/The level of expressed mRNA in the absence of chemical substance (yeast gene YLL041C): 0.8 | The level of expressed mRNA in the presence of chemical substance/The level of expressed mRNA in the absence of chemical substance (yeast gene YLR038C): 1.4 | The level of expressed mRNA in the presence of chemical substance/The level of expressed mRNA in the absence of chemical substance (yeast gene YLR259C): 0.8 | The level of expressed mRNA in the presence of chemical substance/The level of expressed mRNA in the absence of chemical substance (yeast gene YLR295C): 1.2 | The level of expressed mRNA in the presence of chemical substance/The level of expressed mRNA in the absence of chemical substance (yeast gene YLR304C): 0.6 | The level of expressed mRNA in the presence of chemical substance/The level of expressed mRNA in the absence of chemical substance (yeast gene YLR348C): 0.9 | The level of expressed mRNA in the presence of chemical substance/The level of expressed mRNA in the absence of chemical substance (yeast gene YLR395C): 1.0 | The level of expressed mRNA in the presence of chemical substance/The level of expressed mRNA in the absence of chemical substance (yeast gene YML054C): 1.5 | The level of expressed mRNA in the presence of chemical substance/The level of expressed mRNA in the absence of chemical substance (yeast gene YML120C): 0.9 | The level of expressed mRNA in the presence of chemical substance/The level of expressed mRNA in the absence of chemical substance (yeast gene YML129C): 1.2 | The level of expressed mRNA in the presence of chemical substance/The level of expressed mRNA in the absence of chemical substance (yeast gene YMR023C): 1.4 | The level of expressed mRNA in the presence of chemical substance/The level of expressed mRNA in the absence of chemical substance (yeast gene YMR035W): 1.4 | The level of expressed mRNA in the presence of chemical substance/The level of expressed mRNA in the absence of chemical substance (yeast gene YMR083W): 1.1 | The level of expressed mRNA in the presence of chemical substance/The level of expressed mRNA in the absence of chemical substance (yeast gene YMR089C): 1.3 | The level of expressed mRNA in the presence of chemical substance/The level of expressed mRNA in the absence of chemical substance (yeast gene YMR152W): 0.8 | The level of expressed mRNA in the presence of chemical substance/The level of expressed mRNA in the absence of chemical substance (yeast gene YMR203W): 0.7 | The level of expressed mRNA in the presence of chemical substance/The level of expressed mRNA in the absence of chemical substance (yeast gene YMR267W): 1.5 | The level of expressed mRNA in the presence of chemical substance/The level of expressed mRNA in the absence of chemical substance (yeast gene YNL055C): 0.7 | The level of expressed mRNA in the presence of chemical substance/The level of expressed mRNA in the absence of chemical substance (yeast gene YNL071W): 0.9 | The level of expressed mRNA in the presence of chemical substance/The level of expressed mRNA in the absence of chemical substance (yeast gene YNL073W): 1.0 | The level of expressed mRNA in the presence of chemical substance/The level of expressed mRNA in the absence of chemical substance (yeast gene YNL104C): 0.9 | The level of expressed mRNA in the presence of chemical substance/The level of expressed mRNA in the absence of chemical substance (yeast gene YNL256W): 0.9 | The level of expressed mRNA in the presence of chemical substance/The level of expressed mRNA in the absence of chemical substance (yeast gene YOL096C): 1.0 | The level of expressed mRNA in the presence of chemical substance/The level of expressed mRNA in the absence of chemical substance (yeast gene YOR020C): 1.7 | The level of expressed mRNA in the presence of chemical substance/The level of expressed mRNA in the absence of chemical substance (yeast gene YOR037W): 1.5 | The level of expressed mRNA in the presence of chemical substance/The level of expressed mRNA in the absence of chemical substance (yeast gene YOR100C): 1.0 | The level of expressed mRNA in the presence of chemical substance/The level of expressed mRNA in the absence of chemical substance (yeast gene YOR130C): 0.8 | The level of expressed mRNA in the presence of chemical substance/The level of expressed mRNA in the absence of chemical substance (yeast gene YOR142W): 0.8 | The level of expressed mRNA in the presence of chemical substance/The level of expressed mRNA in the absence of chemical substance (yeast gene YOR150W): 1.1 | The level of expressed mRNA in the presence of chemical substance/The level of expressed mRNA in the absence of chemical substance (yeast gene YOR176W): 1.0 | The level of expressed mRNA in the presence of chemical substance/The level of expressed mRNA in the absence of chemical substance (yeast gene YOR187W): 0.7 | The level of expressed mRNA in the presence of chemical substance/The level of expressed mRNA in the absence of chemical substance (yeast gene YOR316C): 0.8 | The level of expressed mRNA in the presence of chemical substance/The level of expressed mRNA in the absence of chemical substance (yeast gene YPL040C): 1.1 | The level of expressed mRNA in the presence of chemical substance/The level of expressed mRNA in the absence of chemical substance (yeast gene YPL134C): 1.3 | The level of expressed mRNA in the presence of chemical substance/The level of expressed mRNA in the absence of chemical substance (yeast gene YPL135W): 1.0 | The level of expressed mRNA in the presence of chemical substance/The level of expressed mRNA in the absence of chemical substance (yeast gene YPL215W): 1.1 | The level of expressed mRNA in the presence of chemical substance/The level of expressed mRNA in the absence of chemical substance (yeast gene YPL262W): 1.0 | The level of expressed mRNA in the presence of chemical substance/The level of expressed mRNA in the absence of chemical substance (yeast gene YPR024W): 0.7 | The level of expressed mRNA in the presence of chemical substance/The level of expressed mRNA in the absence of chemical substance (yeast gene YPR037C): 1.1 | The level of expressed mRNA in the presence of chemical substance/The level of expressed mRNA in the absence of chemical substance (yeast gene YPR047W): 1.2 | The level of expressed mRNA in the presence of chemical substance/The level of expressed mRNA in the absence of chemical substance (yeast gene YPR134W): 1.4
